Source: PubChem BioAssay (NCI)
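Tested at 5 concentrations; 48 h exposure; 96-well plates; endpoints linearly interpolated, else capped at highest concentration. GI50 = concentration required for 50% inhibition of growth. At the TGI there is no net growth.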

How the values were obtained:
Assay in all cases: NCI-60 cell line screen, 48 h
HT29 colon = system: HT29 colon
A549 NSCLC = system: A549 NSCLC
OVCAR-4 ovarian = system: OVCAR-4 ovarian
RXF 393 renal = system: RXF 393 renal
HS 578T breast = system: HS 578T breast
SF-295 CNS = system: SF-295 CNS
EKVX NSCLC = system: EKVX NSCLC
U251 CNS = system: U251 CNS
SK-OV-3 ovarian = system: SK-OV-3 ovarian
KM12 colon = system: KM12 colon

COc1ccc(C(=O)c2cc(OC)c(OC)c(OC)c2)cc1O
GI50 (HT29 colon): 1960 nM | TGI (HT29 colon): > 49.5 µM | GI50 (A549 NSCLC): 71.7 nM | TGI (A549 NSCLC): > 100 µM | GI50 (OVCAR-4 ovarian): 610 nM | TGI (OVCAR-4 ovarian): > 100 µM | GI50 (RXF 393 renal): 16.7 nM | TGI (RXF 393 renal): > 100 µM | GI50 (HS 578T breast): 28 nM | TGI (HS 578T breast): > 100 µM | GI50 (SF-295 CNS): 367 nM | TGI (SF-295 CNS): > 100 µM | GI50 (EKVX NSCLC): 791 nM | TGI (EKVX NSCLC): > 100 µM | GI50 (U251 CNS): 42.5 nM | TGI (U251 CNS): > 100 µM | GI50 (SK-OV-3 ovarian): 395 nM | TGI (SK-OV-3 ovarian): > 100 µM | GI50 (KM12 colon): < 15.5 nM | TGI (KM12 colon): > 100 µM
